Measured values published in patent EP0728012B1, “NOVEL GnRH ANALOGUES WITH ANTITUMOUR EFFECTS AND PHARMACEUTICAL COMPOSITIONS THEREOF” (Lovas, Sandor, priority 1994, dated 1996).
Non-standard residues stand in square brackets, D forms with d. Residues, ends and D or L forms follow the SMILES beside them. dPhe(4-Cl) = N[C@H](Cc1ccc(Cl)cc1)C(=O)O; pGlu = O=C1CC[C@@H](C(=O)O)N1

Key:
MCF-7 [1] = type: cell-based, human; conditions: MCF-7 ER-positive; after 6 days' treatment; dose not stated
Method: (§1) After being treated with trypsin, 300.000 each of MCF-7, MDA-MB-231, PC3 or Ishikawa cells, respectively, were passed into Petri dishes of 10 cm in diameter. Starting from the day following the setting, the cells were treated with 1-50 µM of the GnRH analogue in the exponential growth phase. During the experiment lasting for 5 days, the cells were treated in every two days with the peptide hormone dissolved in the nutrient medium, then the cell count was determined on the sixth day.

MDA-MB-231 [2] = type: cell-based, human; conditions: MDA-MB-231 ER-negative; after 6 days' treatment; dose not stated
Method: as §1

[3] = tested on: Ishikawa human endometrium carcinoma cell line; assay: Inhibition of colony formation (dose-survival relation, Example 18); type: cell-based
Method: (§2) In the case of cytostatics the cell-damaging effect is not cell-specific. […] One part of the arrested cells again go into the cycle, the other part may perish (apoptosis). […] The investigations were carried out on MCF-7 and MDA-MB-231 human mammary carcinoma cell lines, PC3 human prostate 15 carcinoma cell line and Ishikawa human endometrium carcinoma cell line. Three hundred cells were set into Petri dishes of 3.5 cm in diameter each. The treatment was carried out once, 24 hours following the explantation, then the colonies formed were counted after 9 to 12 days.

[4] = tested on: MCF-7 human mammary carcinoma cell line; assay: as above; type: cell-based; conditions: treated once
Method: as §2

[5] = tested on: MDA-MB-231 human mammary carcinoma cell line; assay: as above; type: cell-based
Method: as §2

[6] = tested on: PC3 human prostate carcinoma cell line; assay: as above; type: cell-based
Method: as §2

Ishikawa [7] = tested on: Ishikawa
Method: The procedure of treatment was as follows. After trypsinization the cells, 400,000 cells of MCF-7, MDA-MB-231 human mammary carcinoma, PC3 human prostate carcinoma or Ishikawa human endometrium tumour each were passed into Petri dishes of 10 cm in diameter. Starting from the day following transfer, the cells were treated with the substances to be tested in solution prepared with the nutrient medium during the exponential growth phase. The cultures were treated with 1 to 50 µM (calculated for the total volume of the culture) or MI-1544 GnRH antagonist, MI-1892 chicken GnRH antagonist or SJ-1004 GnRH […] on the 7th day.

PC3 [8] = assay: In vitro inhibition of cell proliferation (Example 19); type: cell-based, human; conditions: for inhibition of proliferation: 30 µM, peptide alone, two treatments on days 2 and 4
Method: The procedure of treatment was as follows. After trypsinization the cells, 400,000 cells of MCF-7, MDA-MB-231 human mammary carcinoma, PC3 human prostate carcinoma or Ishikawa human endometrium tumour each were passed into Petri dishes of 10 cm in diameter. Starting from the day following transfer, the cells were treated with the substances to be tested in solution prepared with the nutrient medium during the exponential growth phase. The cultures were treated with 1 to 50 µM (calculated for the total volume of the culture) or MI-1544 GnRH antagonist, MI-1892 chicken GnRH antagonist or SJ-1004 GnRH antagonist analogues as well as synthetic lamprey GnRH-III hormone every two days and the cell count was determined on the 7th day.

MXT mouse mammary tumour = assay: In vivo antitumour effect on mice bearing MXT mouse mammary tumour; parameters: species or system CBA/Ca mice
Method: The MXT mouse mammary carcinoma contains ER and PgR proteins; furthermore, it contains also GnRH receptors; therefore, this in vivo tumour model is suitable for studying both the direct and indirect effects. The treatment of mice bearing MXT mammary tumour was commenced on the day following transplantation. […] Table VI The animals were daily treated in s.c. route starting from the day following transplantation of MXT mouse mammary tumour. […] MI-1544: 75 µg/day/animal; MI-1892: 75 µg/day/animal.

MCF-7 [9] = tested on: MCF-7
Method: (§3) The procedure of treatment was as follows. After trypsinization the cells, 400,000 cells of MCF-7, MDA-MB-231 human mammary carcinoma, PC3 human prostate carcinoma or Ishikawa human endometrium tumour each were passed into Petri dishes of 10 cm in diameter. Starting from the day following transfer, the cells were treated with the substances to be tested in solution prepared with the nutrient medium during the exponential growth phase. […]

MDA-MB-231 [10] = tested on: MDA-MB-231
Method: as §3

Ishikawa [11] = assay: Inhibition of colony formation by GnRH analogues (dose-survival, Example 48); type: cell-based, human; conditions: 50 µM
Method: (§4) The examination gives accurate information about the cell-damaging effect of the substance tested as a function of varying doses. The treatment was carried out once; the colonies formed from the surviving cells were counted after 8 - 12 days. […] A part of the arrested cells again entered the cycle, another part of them might be destroyed (apoptosis). […] In the case of a dose-response investigation, colonies containing less than 15 cells were not counted. 300 cells were put into each Petri dishes of 3.5 cm in diameter. The treatment was once carried out 24 hours after setting, then the colonies formed were counted after 8 - 12 days. The cells were treated once after 24 hours with 1-50 µM of various GnRH analogues of Examples above or with 1 - 50 µM of GnRH-III, respectively. The percentages of inhibition obtained on MCF-7, MDA-MB-231, PC3 and Ishikawa cells, respectively, together with the dose of the active agent used are shown in Table VIII.

MCF-7 [12] = assay: as above; type: cell-based, human; conditions: treated once
Method: as §4

MDA-MB-231 [13] = assay: as above; type: cell-based, human
Method: as §4

PC3 [14] = assay: as above; type: cell-based, human; conditions: for % Inhibition of the colony formation: 50 µM
Method: as §4

human tumour cell lines [15] = assay: Inhibition of colony formation (Example 48), comparison with the control D-Trp^6-hGnRH; type: cell-based; conditions: data of Table VIII
Method: as §4
In these studies the D-Trp^6-hGnRH analogue (Sigma Co.) commonly used in the tumour therapy was employed as control.

human tumour cell lines [16] = type: cell-based; conditions: 30 µM
Method: as §1

[17] = MXT mouse mammary tumour, Treatment weeks: 13, 1x75 µg daily s.c.
[18] = MXT mouse mammary tumour, Treatment weeks: 20, 1x75 µg daily s.c.
[19] = 30 µM active substance, conjugate, treated once

## [D-Ser(tBu)]^6,desGly^10-hGnRH(1-9)EA [Buserelin]
MCF-7 [1]
  inhibition (change in the cell count): 5-15%
MDA-MB-231 [2]
  inhibition of cell proliferation: 25-30%

## CC(=O)N[C@H](Cc1c[nH]c2ccccc12)C(=O)N[C@H](Cc1ccc(Cl)cc1)C(=O)N[C@H](Cc1c[nH]c2ccccc12)C(=O)N[C@@H](CO)C(=O)N[C@@H](Cc1ccc(O)cc1)C(=O)N[C@H](CCCCN)C(=O)N[C@@H](CC(C)C)C(=O)N[C@@H](CCCNC(=N)N)C(=O)N1CCC[C@H]1C(=O)N[C@H](C)C(N)=O [MI-1544, Ac-D-Trp^1,3,D-Cpa^2,D-Lys^6,D-Ala^10-hGnRH, reference compound] (Ac-[dW][dPhe(4-Cl)][dW]SY[dK]LRP[dA]-NH2)
[3]; 50 µM
  % Inhibition of colony formation: 5%
[4]; 50 µM (active substance)
  % Inhibition of colony formation: 45%
[5]; 50 µM
  % Inhibition of colony formation: 20%
[6]; 50 µM
  % Inhibition of colony formation: 20%
Ishikawa [7]; 30 µM, peptide alone, two treatments on days 2 and 4
  inhibition of proliferation: 8%
PC3 [8]
  inhibition of proliferation: 24%
MXT mouse mammary tumour; [17]
  Inhibition %: 46%
  Tumour volume as control (%): 54%
MXT mouse mammary tumour; [18]
  Inhibition %: 46%
  Tumour volume as control (%): 54%
MXT mouse mammary tumour; day 9, 75 µg/day/animal s.c.
  Tumour volume (cm^3): 0.44 cm^3
  Tumour volume as control (%): 63%
MXT mouse mammary tumour; day 11, 75 µg/day/animal s.c.
  Tumour volume (cm^3): 1.03 cm^3
  Tumour volume as control (%): 57%
MXT mouse mammary tumour; day 13, 75 µg/day/animal s.c.
  Tumour volume (cm^3): 1.74 cm^3
  Tumour volume as control (%): 54%
MXT mouse mammary tumour; day 17, 75 µg/day/animal s.c.
  Tumour volume (cm^3): 2.63 cm^3
  Tumour volume as control (%): 51%
MXT mouse mammary tumour; day 18, 75 µg/day/animal s.c.
  Tumour volume (cm^3): 3.94 cm^3
  Tumour volume as control (%): 53%
MXT mouse mammary tumour; day 20, 75 µg/day/animal s.c.
  Tumour volume (cm^3): 5.02 cm^3
  Tumour volume as control (%): 54%
MXT mouse mammary tumour; day 24, 75 µg/day/animal s.c.
  Tumour volume (cm^3): 6.08 cm^3
  Tumour volume as control (%): 48%
MXT mouse mammary tumour; day 26, 75 µg/day/animal s.c.
  Tumour volume (cm^3): 8.42 cm^3
  Tumour volume as control (%): 60%

## CC(C)C[C@H](NC(=O)[C@@H](CCCCN)NC(=O)[C@H](Cc1ccc(O)cc1)NC(=O)[C@H](CO)NC(=O)[C@@H](Cc1c[nH]c2ccccc12)NC(=O)[C@@H](Cc1ccccc1)NC(=O)[C@@H]1CCC(=O)N1)C(=O)N[C@@H](CCCNC(=N)N)C(=O)N1CCC[C@H]1C(=O)NCC(N)=O [SJ-1004, D-Phe^2,D-Trp^3,D-Lys^6-hGnRH, reference compound] ([pGlu][dF][dW]SY[dK]LRPG-NH2)
[3]; 50 µM
  % Inhibition of colony formation: 5%
[4]; 50 µM (active substance)
  % Inhibition of colony formation: 31%
[5]; 50 µM
  % Inhibition of colony formation: 26%
[6]; 50 µM
  % Inhibition of colony formation: 0%
MCF-7 [9]; MCF-7 (10% FCS), 30 µM, peptide alone, treated every two days (two treatments, days 2 and 4)
  inhibition of proliferation (decrease in cell count): 17%
MDA-MB-231 [10]; MDA-MB-231 (10% FCS), 30 µM, peptide alone, treated every two days (two treatments)
  inhibition of proliferation (decrease in cell count): 23%
PC3 [8]
  inhibition of proliferation: 10%

## CC(=O)NCCCC[C@H](NC(=O)[C@H](Cc1c[nH]c2ccccc12)NC(=O)[C@H](Cc1c[nH]cn1)NC(=O)[C@@H]1CCC(=O)N1)C(=O)N[C@@H](Cc1c[nH]cn1)C(=O)N[C@@H](CC(=O)O)C(=O)N[C@@H](Cc1c[nH]c2ccccc12)C(=O)N[C@@H](CCCCN)C(=O)N1CCC[C@H]1C(=O)NCC(N)=O [7. [Lys(ε-AC)]^4 GnRH-III, [Lys(î-Ac)]^4 -GnRH-III]
Ishikawa [11]
  % Inhibition of the colony formation: 14%
MCF-7 [12]; 10 µM
  % Inhibition of the colony formation: 40%
MCF-7 [12]; 50 µM
  % Inhibition of the colony formation: 52%
MDA-MB-231 [13]; 10 µM
  % Inhibition of the colony formation: 31%
MDA-MB-231 [13]; 50 µM
  % Inhibition of the colony formation: 42%
MDA-MB-231 [13]; 50 µM, listed as Example 32, 50 µM
  % Inhibition of the colony formation: 35-42%
PC3 [14]
  % Inhibition of the colony formation: 0%
PC3 [14]; within the dose range used (1-50 µM)
  inhibition of colony formation: did not influence
Human tumour cell lines [15]
  inhibitory effect compared with the control D-Trp^6-hGnRH: exceeded the inhibitory effect of control
Human tumour cell lines [16]
  proliferation-inhibiting effect: 27-31%

## D-Phe^2,D-Trp^3,{D-Lys[n-poly(N-vinylpyrrolidone-co-maleic acid)-Gly-Phe-Leu-Gly]}^6,-GnRH [P-GFLG-1004]
[3]; 10 µM
  % Inhibition of colony formation: 3%
[3]; 50 µM
  % Inhibition of colony formation: 46%
[4]; 10 µM (active substance)
  % Inhibition of colony formation: 75%
[4]; 50 µM (active substance), listed as 8. P-GFLG-1004, 50 µM
  % Inhibition of colony formation: 95%
[5]; 10 µM
  % Inhibition of colony formation: 62%
[5]; 50 µM, listed as 8. P-GFLG-1004, 50 µM
  % Inhibition of colony formation: 92%
[6]; 30 µM
  % Inhibition of colony formation: 100%
[6]; 50 µM
  % Inhibition of colony formation: 100%
PC3 [14]
  % Inhibition of the colony formation: 31%
MCF-7 [9]; MCF-7, 30 µM active substance, conjugate, treated once, cell count on 7th day, listed as 8. P-GFLG-1004
  % Inhibition of cell division (proliferation): 63%
MDA-MB-231 [10]; MDA-MB-231, 30 µM active substance, conjugate, treated once, listed as 8. P-GFLG-1004
  % Inhibition of cell division (proliferation): 68%
Ishikawa [7]; [19]
  % Inhibition of cell division (proliferation): 20%
PC3 [8]; [19]
  % Inhibition of cell division (proliferation): 35%

## D-Phe^6-GnRH(1-9)-ethylamide [Ovurelin]
MCF-7 [1]
  inhibition (change in the cell count): 5-15%
MDA-MB-231 [2]
  inhibition of cell proliferation: 25-30%
